Assay [1] addresses T1, Sodium/glucose cotransporter 2 (Homo sapiens, UniProt P31639).
T1 sequence (P31639 whole entry): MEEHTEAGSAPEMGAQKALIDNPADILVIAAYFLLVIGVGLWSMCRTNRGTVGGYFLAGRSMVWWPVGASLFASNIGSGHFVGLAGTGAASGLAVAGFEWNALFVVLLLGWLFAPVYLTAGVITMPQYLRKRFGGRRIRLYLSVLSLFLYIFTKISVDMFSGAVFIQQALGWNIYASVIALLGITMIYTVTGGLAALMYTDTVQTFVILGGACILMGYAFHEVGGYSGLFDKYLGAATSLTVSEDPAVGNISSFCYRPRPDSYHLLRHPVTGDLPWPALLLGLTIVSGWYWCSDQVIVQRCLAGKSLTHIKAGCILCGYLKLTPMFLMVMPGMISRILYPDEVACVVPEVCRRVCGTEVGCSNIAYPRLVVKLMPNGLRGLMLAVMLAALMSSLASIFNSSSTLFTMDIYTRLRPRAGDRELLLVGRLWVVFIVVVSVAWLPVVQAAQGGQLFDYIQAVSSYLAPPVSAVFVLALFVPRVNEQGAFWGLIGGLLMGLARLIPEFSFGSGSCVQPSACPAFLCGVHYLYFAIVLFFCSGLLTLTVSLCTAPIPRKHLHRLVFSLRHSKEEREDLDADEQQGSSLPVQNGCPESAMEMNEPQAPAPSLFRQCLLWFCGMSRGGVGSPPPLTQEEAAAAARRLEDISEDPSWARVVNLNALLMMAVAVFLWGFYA
Description: Inhibition of SGLT2 transfected in african green monkey COS1 cells assessed as alpha-D-[U-14C]glucopyranoside uptake after 30 mins by scintillation counting. In kind it is cell-based, COS-1.

For assay [2], the target named is T2, Sodium/glucose cotransporter 1 (Homo sapiens, UniProt P13866).
T2 sequence (P13866 whole entry): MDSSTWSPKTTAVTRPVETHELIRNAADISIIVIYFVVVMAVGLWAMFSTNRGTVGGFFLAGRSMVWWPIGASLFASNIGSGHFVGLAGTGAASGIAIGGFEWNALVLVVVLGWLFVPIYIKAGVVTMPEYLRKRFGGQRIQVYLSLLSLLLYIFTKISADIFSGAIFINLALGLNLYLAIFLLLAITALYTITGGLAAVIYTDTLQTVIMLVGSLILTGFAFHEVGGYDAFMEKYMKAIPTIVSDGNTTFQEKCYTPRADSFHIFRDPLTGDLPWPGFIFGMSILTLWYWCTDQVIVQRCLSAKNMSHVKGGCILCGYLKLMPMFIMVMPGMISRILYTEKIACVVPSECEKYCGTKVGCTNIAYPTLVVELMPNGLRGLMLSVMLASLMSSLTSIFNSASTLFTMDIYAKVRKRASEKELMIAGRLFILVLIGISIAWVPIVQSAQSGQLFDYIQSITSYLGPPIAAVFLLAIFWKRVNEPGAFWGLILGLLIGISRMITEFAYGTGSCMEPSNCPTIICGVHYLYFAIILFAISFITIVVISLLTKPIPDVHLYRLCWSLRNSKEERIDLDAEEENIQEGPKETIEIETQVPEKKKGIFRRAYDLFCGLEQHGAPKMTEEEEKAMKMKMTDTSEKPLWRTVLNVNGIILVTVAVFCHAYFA
Briefly: Inhibition of SGLT1 transfected in african green monkey COS1 cells assessed as alpha-D-[U-14C]glucopyranoside uptake after 30 mins by scintillation counting. In kind it is cell-based, COS-1.

One may read the IC50 as the concentration needed to halve the response being measured.

`COc1cc(O)c2c(c1[C@@H]1O[C@H](CO)[C@@H](O)[C@H](O)[C@H]1O)O[C@H](c1ccc(O)c(O)c1)[C@@H](O)C2=O` [NOIDESOL A]: the IC50 result in assay [1] (cos-1) and in assay [2] (cos-1) was “Not Active” throughout.
Consider `Oc1cc(O)cc([C@@H]2c3cc([C@@H]4Oc5cc(-c6cc7ccc(O)cc7o6)cc(O)c5[C@H]4c4cc(O)cc(O)c4)c(O)cc3O[C@H]2c2ccc(O)cc2O)c1` [GNEYULIN B], for which the IC50 in assay [1] (read-out: IC50) stood at 18 µM; in assay [2] (read-out: IC50), 37 µM.
Consider `COc1ccc([C@H]2Oc3cc(O)c([C@@H]4O[C@H](CO)[C@@H](O)[C@H](O)[C@H]4O)c(O)c3C(=O)[C@@H]2O)cc1O` [NOIDESOL B], for which the half-maximal inhibitory concentration (IC50) entry in assay [1] (cos-1) and in assay [2] (cos-1) was “Not Active” each time.
In the case of `Oc1cc(O)cc([C@@H]2c3cc([C@@H]4Oc5cc(/C=C/c6ccc(O)cc6O)cc(O)c5[C@H]4c4cc(O)cc(O)c4)c(O)cc3O[C@H]2c2ccc(O)cc2O)c1` [GNEYULIN A], the results for the 50% inhibitory concentration (IC50) in assay [1] (read-out: IC50) and in assay [2] (read-out: IC50) were 25 µM and 27 µM, respectively.

The record behind these values is ChEMBL document CHEMBL1157077, “Gneyulins A and B, stilbene trimers, and noidesols A and B, dihydroflavonol-C-glucosides, from the bark of Gnetum gnemonoides” (J Nat Prod, 2010).
